In experiment [1] the target is Glyceraldehyde-3-phosphate dehydrogenase (Homo sapiens, UniProt P04406).
Experiment [2] deals with T1, Bcl-2-related protein A1 (Mus musculus, UniProt Q07440).
T1 sequence (Q07440 whole entry): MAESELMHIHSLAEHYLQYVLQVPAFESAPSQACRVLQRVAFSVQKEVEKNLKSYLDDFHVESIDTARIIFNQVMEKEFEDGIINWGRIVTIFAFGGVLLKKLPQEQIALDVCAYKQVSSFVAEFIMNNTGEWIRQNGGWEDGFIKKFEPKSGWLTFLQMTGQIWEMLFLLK
Kind of experiment: small-molecule antagonists of Bfl-1/BH3 interaction – biochemical, TR-FRET, mouse Bfl-1, confirmation (AID 621).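 Further: TR-FRET binding of GST-Bfl-1 to FITC-labelled Bid peptide via terbium antibody.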 For orientation: In TR-FRET formats the signal depends on donor and acceptor labels being close together.

Experiment [3] addresses T1, Bcl-2-related protein A1. Kind of experiment: Bfl-1 binding inhibitors, SAR follow-up, biochemical, fluorescence polarization (AID 1070). (In general: Fluorescence polarisation rises when a labelled molecule tumbles more slowly, as on binding a larger partner.)
Another experiment has as its target Procathepsin L (Homo sapiens, UniProt P07711). Kind of experiment: CTSL1 protease inhibition – biochemical, QFRET, 1536-well, counter-screen for M1/M17 aminopeptidase inhibitor project, dose response (AID 2214). Background: The purpose of a counterscreen is to sort out artefacts and off-target activity.
A further experiment concerns the target T2, Aminopeptidase N (Plasmodium falciparum FcB1/Columbia, UniProt O96935).
T2 sequence (O96935 whole entry): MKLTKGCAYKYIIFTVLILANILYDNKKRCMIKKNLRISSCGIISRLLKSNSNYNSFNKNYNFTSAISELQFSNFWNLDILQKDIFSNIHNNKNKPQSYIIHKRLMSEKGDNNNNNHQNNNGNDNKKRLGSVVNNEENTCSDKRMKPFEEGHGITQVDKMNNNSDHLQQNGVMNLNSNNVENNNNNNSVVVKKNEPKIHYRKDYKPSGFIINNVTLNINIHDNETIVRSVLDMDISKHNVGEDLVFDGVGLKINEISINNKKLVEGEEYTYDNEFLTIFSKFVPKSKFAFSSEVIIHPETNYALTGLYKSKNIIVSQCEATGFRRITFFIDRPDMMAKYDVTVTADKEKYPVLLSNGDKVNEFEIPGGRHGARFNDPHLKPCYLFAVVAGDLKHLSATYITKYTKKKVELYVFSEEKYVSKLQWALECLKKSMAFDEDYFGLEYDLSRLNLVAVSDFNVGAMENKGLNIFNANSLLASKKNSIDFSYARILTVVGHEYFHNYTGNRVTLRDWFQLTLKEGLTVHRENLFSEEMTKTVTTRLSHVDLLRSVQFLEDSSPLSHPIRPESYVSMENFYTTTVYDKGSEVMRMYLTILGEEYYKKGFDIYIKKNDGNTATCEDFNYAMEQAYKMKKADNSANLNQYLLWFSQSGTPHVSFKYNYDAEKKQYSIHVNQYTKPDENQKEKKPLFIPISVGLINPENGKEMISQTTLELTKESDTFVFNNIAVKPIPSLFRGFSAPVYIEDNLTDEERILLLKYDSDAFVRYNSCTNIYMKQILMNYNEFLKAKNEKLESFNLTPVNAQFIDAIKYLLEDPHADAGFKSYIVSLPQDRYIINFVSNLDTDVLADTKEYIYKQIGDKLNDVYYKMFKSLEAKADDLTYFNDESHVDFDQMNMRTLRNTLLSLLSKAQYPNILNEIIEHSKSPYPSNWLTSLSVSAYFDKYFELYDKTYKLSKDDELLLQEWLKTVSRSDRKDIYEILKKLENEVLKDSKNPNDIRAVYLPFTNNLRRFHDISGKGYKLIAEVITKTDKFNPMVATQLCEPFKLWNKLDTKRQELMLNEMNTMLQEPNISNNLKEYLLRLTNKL
Kind of experiment: malaria alanyl aminopeptidase activity blockers – biochemical, fluorogenic H-Leu-NHMec substrate, 1536-well (AID 1445). On the set-up: species or system Plasmodium falciparum 3D7, 3D7.

A further experiment addresses Aspartyl aminopeptidase (Plasmodium falciparum 3D7, UniProt Q8I2J3). Kind of experiment: Counterscreen for inhibitors of M1 and M17 aminopeptidases: QFRET-based biochemical high throughput dose response assay for inhibitors of the Plasmodium falciparum M18 Aspartyl Aminopeptidase (PFM18AAP). [Related PubChem assays: 1619 (Screening assay (M17LAP inhibitors).), 1445 (Screening assay (M1AAP inhibitors).)].

In another experiment the target is T3, Leucine aminopeptidase (Plasmodium falciparum 3D7, UniProt Q8IL11).
T3 sequence (Q8IL11 whole entry): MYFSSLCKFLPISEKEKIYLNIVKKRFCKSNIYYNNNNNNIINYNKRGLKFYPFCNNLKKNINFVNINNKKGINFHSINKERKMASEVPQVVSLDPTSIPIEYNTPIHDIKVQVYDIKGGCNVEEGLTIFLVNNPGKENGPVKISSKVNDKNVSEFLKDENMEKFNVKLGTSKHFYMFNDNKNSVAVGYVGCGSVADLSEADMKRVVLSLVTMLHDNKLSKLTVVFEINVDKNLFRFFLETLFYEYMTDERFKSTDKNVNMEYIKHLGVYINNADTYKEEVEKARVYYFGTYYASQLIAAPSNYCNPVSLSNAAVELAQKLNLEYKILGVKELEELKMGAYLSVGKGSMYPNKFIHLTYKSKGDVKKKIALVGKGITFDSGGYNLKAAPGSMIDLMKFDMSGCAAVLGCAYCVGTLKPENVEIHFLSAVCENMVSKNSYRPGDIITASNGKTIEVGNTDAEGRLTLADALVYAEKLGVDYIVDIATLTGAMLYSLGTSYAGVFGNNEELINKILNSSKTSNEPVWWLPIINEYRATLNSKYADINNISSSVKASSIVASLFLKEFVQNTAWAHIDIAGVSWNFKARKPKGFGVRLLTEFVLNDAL
Nature of the experiment: P. falciparum M17LAP inhibitors, primary screen, biochemical, fluorogenic H-Leu-NHMec substrate, 1536-well (AID 1619). In kind it is functional.

Experiment [4] is described as follows: A Cell Based Secondary Assay To Explore Cytotoxicity of Compounds that Sensitize Mycobacterium Tuberculosis to Beta-Lactam Antibiotics. Type of experiment: functional.
Experiment [5] addresses T4, Eukaryotic translation initiation factor 2-alpha kinase 3 (Homo sapiens, UniProt Q9NZJ5).
T4 sequence (Q9NZJ5 whole entry): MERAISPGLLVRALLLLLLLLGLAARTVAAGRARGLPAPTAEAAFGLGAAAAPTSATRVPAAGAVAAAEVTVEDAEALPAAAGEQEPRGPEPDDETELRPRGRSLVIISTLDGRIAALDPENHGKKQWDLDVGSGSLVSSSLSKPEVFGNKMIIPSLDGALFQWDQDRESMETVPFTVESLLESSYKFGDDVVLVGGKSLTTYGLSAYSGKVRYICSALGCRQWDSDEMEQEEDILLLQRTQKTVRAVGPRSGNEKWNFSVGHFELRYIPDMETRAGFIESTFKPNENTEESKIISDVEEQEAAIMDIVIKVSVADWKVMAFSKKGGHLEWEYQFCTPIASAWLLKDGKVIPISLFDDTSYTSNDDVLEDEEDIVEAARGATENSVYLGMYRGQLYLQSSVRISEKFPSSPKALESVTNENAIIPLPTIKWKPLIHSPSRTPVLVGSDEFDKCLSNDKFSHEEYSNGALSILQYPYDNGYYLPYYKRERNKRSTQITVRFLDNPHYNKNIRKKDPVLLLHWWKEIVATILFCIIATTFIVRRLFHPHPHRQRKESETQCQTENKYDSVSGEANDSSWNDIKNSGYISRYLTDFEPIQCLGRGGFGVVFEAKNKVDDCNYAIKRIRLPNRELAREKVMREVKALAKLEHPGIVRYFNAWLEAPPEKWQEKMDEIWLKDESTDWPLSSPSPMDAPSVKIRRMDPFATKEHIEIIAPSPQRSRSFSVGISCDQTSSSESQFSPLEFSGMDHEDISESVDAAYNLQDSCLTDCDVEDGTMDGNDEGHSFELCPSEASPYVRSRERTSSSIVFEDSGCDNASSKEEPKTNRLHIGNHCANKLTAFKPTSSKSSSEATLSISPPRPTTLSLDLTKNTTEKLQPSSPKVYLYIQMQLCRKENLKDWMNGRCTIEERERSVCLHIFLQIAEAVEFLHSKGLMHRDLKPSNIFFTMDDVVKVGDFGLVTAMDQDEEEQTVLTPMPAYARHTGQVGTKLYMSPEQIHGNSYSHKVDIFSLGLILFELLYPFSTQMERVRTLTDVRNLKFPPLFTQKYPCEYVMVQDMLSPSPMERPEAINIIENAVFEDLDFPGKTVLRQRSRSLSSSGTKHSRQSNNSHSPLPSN
Kind of experiment: Dose response cell-based high-throughput screening assay to measure PERK inhibition. [Related pubchem assays: 1416 ]. Type of experiment: functional.

Experiment [6] concerns the target T4, Eukaryotic translation initiation factor 2-alpha kinase 3. Kind of experiment: Counterscreen assay for PERK inhibitors: Dose response cell-based high throughput screening assay to measure inhibition of PERK at 6 hours. [Related pubchem assays: 1522, 1416 ]. In kind it is functional.

Broadly, the IC50 is the concentration that gives 50% inhibition. Usually CC50 stands for the concentration giving 50% cytotoxicity. One may read the EC50 as the concentration needed to bring the measured effect to its halfway point. A high value points to lower potency in that assay.

The structures appear in SMILES notation. The source made the active and inactive calls. Where only a bound is given, the exact number is not on record here.

Chain of Aspartyl aminopeptidase (Q8I2J3 whole entry): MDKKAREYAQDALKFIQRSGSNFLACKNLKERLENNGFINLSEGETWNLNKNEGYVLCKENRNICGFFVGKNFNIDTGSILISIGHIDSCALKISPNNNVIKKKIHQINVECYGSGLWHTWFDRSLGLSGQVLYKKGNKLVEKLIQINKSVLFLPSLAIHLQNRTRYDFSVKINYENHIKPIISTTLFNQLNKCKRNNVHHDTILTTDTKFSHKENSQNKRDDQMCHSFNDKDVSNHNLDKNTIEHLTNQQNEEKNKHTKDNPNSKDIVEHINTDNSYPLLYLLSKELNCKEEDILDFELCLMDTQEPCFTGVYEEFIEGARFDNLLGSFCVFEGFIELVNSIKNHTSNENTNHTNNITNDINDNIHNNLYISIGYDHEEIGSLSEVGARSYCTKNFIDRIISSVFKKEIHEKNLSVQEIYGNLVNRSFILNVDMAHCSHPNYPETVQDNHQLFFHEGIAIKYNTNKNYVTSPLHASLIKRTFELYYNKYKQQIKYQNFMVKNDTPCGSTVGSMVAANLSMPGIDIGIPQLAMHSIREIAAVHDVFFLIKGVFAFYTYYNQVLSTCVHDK
Chain of Procathepsin L (P07711 whole entry): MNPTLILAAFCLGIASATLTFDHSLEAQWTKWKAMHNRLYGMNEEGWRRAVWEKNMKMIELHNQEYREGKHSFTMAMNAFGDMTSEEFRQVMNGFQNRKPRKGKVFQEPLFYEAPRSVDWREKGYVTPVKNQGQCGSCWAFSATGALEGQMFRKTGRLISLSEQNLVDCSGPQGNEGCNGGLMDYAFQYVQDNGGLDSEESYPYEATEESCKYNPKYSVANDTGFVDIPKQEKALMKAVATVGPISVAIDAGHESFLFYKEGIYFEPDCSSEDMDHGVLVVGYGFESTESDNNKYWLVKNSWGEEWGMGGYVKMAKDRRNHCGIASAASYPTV
Chain of Glyceraldehyde-3-phosphate dehydrogenase (P04406 whole entry): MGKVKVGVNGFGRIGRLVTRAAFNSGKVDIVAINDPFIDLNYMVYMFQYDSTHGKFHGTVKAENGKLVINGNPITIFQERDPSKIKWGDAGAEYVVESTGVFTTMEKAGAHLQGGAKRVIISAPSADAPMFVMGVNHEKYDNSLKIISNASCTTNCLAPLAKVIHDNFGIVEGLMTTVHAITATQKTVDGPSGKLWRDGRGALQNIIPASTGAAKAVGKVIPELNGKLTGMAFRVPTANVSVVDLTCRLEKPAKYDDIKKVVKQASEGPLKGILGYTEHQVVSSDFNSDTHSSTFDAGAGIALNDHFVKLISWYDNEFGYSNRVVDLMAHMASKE

On to `O=C1C(Cl)=C(N2CCCC2)C(=O)N1c1ccc(Cl)c(Cl)c1`, for which the IC50 (in experiment [1]; against Bcl-2-related protein A1 [2]; on Bcl-2-related protein A1 [3]) was > 100 µM (not active) each time.

For `CCCS(=O)(=O)N1CCC(C(=O)NCc2ccc3c(c2)OCO3)CC1`, the figures for the IC50 on Procathepsin L, at Aminopeptidase N and on Aspartyl aminopeptidase were > 59.6 µM (not active), 13.1 µM (active) and > 73.5 µM (not active), respectively.

Regarding `O=C(CSc1nc2c(c(=O)[nH]1)CN(Cc1ccc(F)cc1)CC2)Nc1ccc(F)cc1`, the IC50 at Procathepsin L was > 59.6 µM (not active); at Leucine aminopeptidase it was 7.8 µM (active); against Aspartyl aminopeptidase, > 73.5 µM (not active).

Turning to `O=c1c2cc(Cl)ccc2[nH]c(=S)n1Cc1cccs1`, in experiment [4], the CC50 is > 40 µM (active).

As to `O=C1c2ccncc2C(=O)N1c1cccc(Cl)c1`, the EC50 in experiment [5] and in experiment [6] was > 55.7 µM (not active) in each case.
